Numbers after ± are expanded uncertainties.
How the values were obtained:
[1] = Liquid; for mass density: 293.2 K, 101.33 kPa; for Normal boiling temperature: Distillation
[2] = Boiling temperature at pressure P; details: 1.733 kPa; Liquid; Distillation
[3] = refractive index (Na D-line) (dimensionless); details: 293.2 K; 101.33 kPa; Liquid; Standard Abbe refractometry

| Compound | mass density [1] | Boiling temperature at pressure P [2] | refractive index [3] | Normal boiling temperature [1] |
| --- | --- | --- | --- | --- |
| COC(=O)CCCCC(=O)OC [dimethyl 1,6-hexanedioate] | 1061.72 ± 0.56 kg/m3 | 115 ± 1 °C | 1.42825 ± 0.0007 |  |
| COC(=O)CCC(=O)OC [dimethyl 1,4-butanedioate] | 1119.13 ± 1.6 kg/m3 |  | 1.41969 ± 0.00078 | 196.1 ± 0.2 °C |
| O=CO [formic acid] | 1220.04 ± 1 kg/m3 |  | 1.37144 ± 0.0007 | 101.2 ± 0.2 °C |
| COC(=O)CCCC(=O)OC [dimethyl pentanedioate] | 1087.67 ± 0.63 kg/m3 |  | 1.42454 ± 0.0007 | 214.2 ± 0.2 °C |
